# According to patent US7648999B2, “Activator for peroxisome proliferator-activated receptor δ” (Nippon Chemiphar Co., Ltd., priority 2007, dated 2010):
# Where two headings read alike, the source gives them in different places.
# Assays:
# Format in all cases: cell-based
# PPARδ (GAL4-hPPARδ LBD) = target: T1, PPARδ (GAL4-hPPARδ LBD) (Homo sapiens, UniProt Q03181); test: PPARδ transactivation activity (GAL4 chimera luciferase reporter in CV-1 cells)
# T1 construct: A chimeric receptor expression plasmid (GAL4-hPPARδ LBD), a reporter plasmid (UASx4-TK-LUC); expressed in transfected cells; host or cells: CV-1 cells
# T1 sequence (Q03181 211-439 limits assumed): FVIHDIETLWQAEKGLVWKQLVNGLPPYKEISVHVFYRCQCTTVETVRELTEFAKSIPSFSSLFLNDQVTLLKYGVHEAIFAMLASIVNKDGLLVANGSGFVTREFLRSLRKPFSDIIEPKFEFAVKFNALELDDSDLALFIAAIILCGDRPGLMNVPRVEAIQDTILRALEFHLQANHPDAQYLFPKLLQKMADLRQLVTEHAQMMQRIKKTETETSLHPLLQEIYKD
# Description: A chimeric receptor expression plasmid (GAL4-hPPARδ LBD), a reporter plasmid (UASx4-TK-LUC) and β-galactosidase (β-GAL) are transfected into CV-1 cells by utilizing a lipofection reagent DMRIE-C (Life Technologies).
# (1) Measurement of PPARα, γ, δ Transactivation Activity
# CV-1 cells were obtained from Tohoku University Aging Medical Laboratory, Medical Cell Collection Center. All test compounds were dissolved in dimethylsulfoxide (DMSO). Final concentration of DMSO was 0.1%.
# CV-1 cells were seeded in 24 well culture plates at 2×10^5 cells per well, and cultured for 24 hours OPTI-MEM I Reduced Serum Medium (Life Technologies, 500 μL/well) containing 4%-fetal bovine serum (FBS). After washing with OPTI-MEM, transfection mixture (250 μL/well) containing 0.03 μg of GAL4-hPPARδ LBD, 0.25 μg of UASx-4-TK-LUC, 0.35 μg of βGAL, and 2 μL of lipofection reagent, DMRIE-C (Life Technologies) were added. The cells were incubated for 5 hours at 37° C.
# The cells were washed and incubated for 40 hours in the presence of the test compound (final concentration was 10^−7M or 10^−6M)
# The culture medium was removed and the cells were washed with PBS twice. A solubilizing buffer (100 μL/well) containing 25 mM Tris-PO4 (pH 7.8), 15% v/v glycerol, 2% CHAPS, 1% Lecithin, 1% BSA, 4 mM EGTA (pH 8.0), 8 mM MgCl2, 1 mM DTT was added. After the incubation for 10 minutes at room temperature, a portion (20 μL) of the solution was transferred into a 96-well plate. Subsequently, 100 μL of luciferase substrate solution (Piccagene: available from Nippon Gene Co., Ltd.) was added, and a luminous intensity per one second (luciferase activity) was measured using a microluminoreader (Type MLR-100, Corona Electrics Co., Ltd.). Each luciferase activity was corrected by the transfection efficiency which was calculated from β-galactosidase activity. The assay method of β-galactosidase activity was as follows: A portion (50 μL) of the solubilized sample was transferred into another 96-well plate; 100 μL of ONPG (2-nitrophenyl-β-galactopyranoside) solution was added and incubated for 5 minutes at room temperature. 50 μL of a reaction stopping solution (1M sodium carbonate solution) was added. Then the absorbance at 414 nm was measured.
# PPARα (GAL4-hPPARα LBD) = target: T2, PPARα (GAL4-hPPARα LBD) (Homo sapiens, UniProt Q07869); test: PPARα transactivation activity (GAL4 chimera luciferase reporter in CV-1 cells)
# T2 construct: Receptor expression plasmid (GAL4-hPPARα, LBD GAL4-hPPARγ LBD, GAL4-hPPARδ LBD); expressed in transfected cells; host or cells: CV-1 cells
# T2 sequence (Q07869 239-466 limits assumed): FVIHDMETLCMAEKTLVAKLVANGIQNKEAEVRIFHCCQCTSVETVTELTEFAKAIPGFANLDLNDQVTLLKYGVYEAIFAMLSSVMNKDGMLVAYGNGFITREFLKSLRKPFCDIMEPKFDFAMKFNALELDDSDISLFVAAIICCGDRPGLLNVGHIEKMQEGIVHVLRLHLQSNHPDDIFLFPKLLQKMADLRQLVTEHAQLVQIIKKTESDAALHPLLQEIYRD
# PPARγ (GAL4-hPPARγ LBD) = target: T3, PPARγ (GAL4-hPPARγ LBD) (Homo sapiens, UniProt P37231); test: PPARγ transactivation activity (GAL4 chimera luciferase reporter in CV-1 cells)
# T3 construct: Receptor expression plasmid (GAL4-hPPARα, LBD GAL4-hPPARγ LBD, GAL4-hPPARδ LBD); expressed in transfected cells; host or cells: CV-1 cells
# T3 sequence (P37231 238-503 limits assumed): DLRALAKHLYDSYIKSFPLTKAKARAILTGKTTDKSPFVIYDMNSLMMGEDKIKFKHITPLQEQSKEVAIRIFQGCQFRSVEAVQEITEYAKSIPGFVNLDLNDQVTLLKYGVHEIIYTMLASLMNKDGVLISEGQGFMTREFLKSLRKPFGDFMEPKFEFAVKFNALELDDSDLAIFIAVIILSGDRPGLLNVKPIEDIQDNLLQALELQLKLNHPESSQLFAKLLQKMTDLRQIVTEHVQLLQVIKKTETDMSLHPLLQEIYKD
# [1] = compound at 10^−7 M, CV-1 cells, 40 hours, positive control 10^−4 M L-165041 = 100%
# [2] = compound at 10^−7 M, CV-1 cells, 40 hours, positive control 10^−4 M WY-14643 = 100%
# [3] = compound at 10^−7 M, CV-1 cells, 40 hours, positive control 10^−5 M Rosiglitazone = 100%
# [4] = compound at 10^−7 M (value without parentheses)
# [5] = compound at 10^−6 M (value in parentheses)
"Relative activity for PPAR transactivation, δ (PPARδ (GAL4-hPPARδ LBD); [4])","Relative activity for PPAR transactivation, α (PPARα (GAL4-hPPARα LBD); [4])","Relative activity for PPAR transactivation, γ (PPARγ (GAL4-hPPARγ LBD); [4])",Compound,also measured
,,,4-[3-[4-Methyl-2-(4-trifluoromethyl)phenyl-5-thiazolyl]propionyl]-2-methylphenoxy]acetic acid [Example 44],"PPARδ transactivation activity / activating effect (in words) (PPARδ (GAL4-hPPARδ LBD)): inferior in the PPARδ transactivation activity; Relative activity for PPAR transactivation, δ (PPARδ (GAL4-hPPARδ LBD)): (38) % of control; Relative activity for PPAR transactivation, α (PPARα (GAL4-hPPARα LBD)): (0) % of control; Relative activity for PPAR transactivation, γ (PPARγ (GAL4-hPPARγ LBD)): (0) % of control"
,,,"Cc1cc(C(=O)CCc2sc(-c3ccc(C(F)(F)F)cc3)nc2C(C)C)ccc1OCC(=O)O [Example 3, [4-[3-[2-(4-Trifluoromethyl)phenyl-4-isopropyl-5-thiazolyl]propionyl]-2-methylphenoxy]acetic acid]","Relative activity for PPAR transactivation, δ (PPARδ (GAL4-hPPARδ LBD); [1]): 101 % of control; Relative activity for PPAR transactivation, α (PPARα (GAL4-hPPARα LBD); [2]): 0 % of control; Relative activity for PPAR transactivation, γ (PPARγ (GAL4-hPPARγ LBD); [3]): 5 % of control"
,,,"Cc1cc(C(=O)CCc2nc(-c3ccc(Cl)cc3O)oc2C(C)C)ccc1OCC(=O)O [Example 6, [4-[3-[2-(2-Hydroxy-4-chlorophenyl)-5-isopropyl-4-oxazolyl]propionyl]-2-methylphenoxy]acetic acid]","Relative activity for PPAR transactivation, δ (PPARδ (GAL4-hPPARδ LBD); [1]): 73 % of control; Relative activity for PPAR transactivation, α (PPARα (GAL4-hPPARα LBD); [2]): 0 % of control; Relative activity for PPAR transactivation, γ (PPARγ (GAL4-hPPARγ LBD); [3]): 6 % of control"
56 % of control,0 % of control,1 % of control,"CCCCCCc1nc(-c2ccc(C(F)(F)F)cc2)sc1CCC(=O)c1ccc(OCC(=O)O)c(C)c1 [Example 11, [4-[3-[4-Hexyl-2-(4-trifluoromethyl)phenyl-5-thiazolyl]propionyl]-2-methylphenoxy]acetic acid]",
45 % of control,75 % of control,31 % of control,"CCCCCCc1nc(-c2ccc(C(F)(F)F)cc2)sc1CCC(=O)c1ccc(OC(C)(C)C(=O)O)c(C)c1 [Example 12, 2-[4-[3-[4-Hexyl-2-(4-trifluoromethyl)phenyl-5-thiazolyl]propionyl]-2-methylphenoxy]-2-methylpropionic acid]",
62 % of control,63 % of control,17 % of control,"Cc1cc(C=CCc2sc(-c3ccc(C(F)(F)F)cc3)nc2C(C)C)ccc1OC(C)(C)C(=O)O [Example 13, 2-[4-[3-[4-Isopropyl-2-(4-trifluoromethyl)phenyl-5-thiazolyl]-1-propenyl]-2-methylphenoxy]-2-methylpropionic acid]",
42 % of control,0 % of control,0 % of control,"Cc1cc(OCC(=O)O)ccc1C(=O)CCc1sc(-c2ccc(C(F)(F)F)cc2)nc1C(C)C [Example 14, [4-[3-[4-Isopropyl-2-(4-trifluoromethyl)phenyl-5-thiazolyl]propionyl]-3-methylphenoxy]acetic acid]",
57 % of control,62 % of control,3 % of control,"Cc1cc(OC(C)(C)C(=O)O)ccc1C(=O)CCc1sc(-c2ccc(C(F)(F)F)cc2)nc1C(C)C [Example 16, [4-[3-[4-Isopropyl-2-(4-trifluoromethyl)phenyl-5-thiazolyl]propionyl]-3-methylphenoxy]-2-methylpropionic acid]",
70 % of control,0 % of control,1 % of control,"CCCc1cc(C(=O)CCc2sc(-c3ccc(C(F)(F)F)cc3)nc2C(C)C)ccc1OCC(=O)O [Example 18, [4-[3-[4-Isopropyl-2-(4-trifluoromethyl)phenyl-5-thiazolyl]propionyl]-2-propylphenoxy]acetic acid]",
75 % of control,0 % of control,0 % of control,"Cc1cc(C(=O)C=Cc2sc(-c3ccc(C(F)(F)F)cc3)nc2C(C)C)ccc1OCC(=O)O [Example 24, [4-[3-[4-Isopropyl-2-(4-trifluoromethyl)phenyl-5-thiazolyl]propenoyl]-2-methylphenoxy]acetic acid]",
61 % of control,,,"Cc1cc(C(=O)C=Cc2sc(-c3ccc(C(F)(F)F)cc3)nc2C(C)C)ccc1OC(C)(C)C(=O)O [Example 25, 2-[4-[3-[4-Isopropyl-2-(4-trifluoromethyl)phenyl-5-thiazolyl]propenoyl]-2-methylphenoxy]-2-methylpropionic acid]",
44 % of control,0 % of control,1 % of control,"CC(C)c1nc(-c2ccc(C(F)(F)F)cc2)sc1CCC(=O)c1ccc(OCC(=O)O)c(Cl)c1 [Example 33, [4-[3-[4-Isopropyl-2-(4-trifluoromethyl)phenyl-5-thiazolyl]propionyl]-2-chlorophenoxy]acetic acid]",
,,,"Cc1cc(C(=O)CCc2nc(-c3ccc(C(F)(F)F)cc3)sc2C(C)C)ccc1OCC(=O)O [Example 37, [4-[3-[5-Isopropyl-2-(4-trifluoromethyl)phenyl-4-thiazolyl]propionyl]-2-methylphenoxy]acetic acid]","Relative activity for PPAR transactivation, δ (PPARδ (GAL4-hPPARδ LBD)): (71) % of control"
,,,"Cc1ccc(C(=O)CCc2sc(-c3ccc(C(F)(F)F)cc3)nc2C(C)C)cc1OCC(=O)O [Example 41, [5-[3-[4-Isopropyl-2-(4-trifluoromethyl)phenyl-5-thiazolyl]propionyl]-2-methylphenoxy]acetic acid]","Relative activity for PPAR transactivation, α (PPARα (GAL4-hPPARα LBD); [5]): (5) % of control; Relative activity for PPAR transactivation, γ (PPARγ (GAL4-hPPARγ LBD); [5]): (60) % of control"
,,,"Cc1ccc(C(=O)CCc2sc(-c3ccc(C(F)(F)F)cc3)nc2C(C)C)cc1OC(C)(C)C(=O)O [Example 42, 2-[5-[3-[4-Isopropyl-2-(4-trifluoromethyl)phenyl-5-thiazolyl]propionyl]-2-methylphenoxy]-2-methylpropionic acid]","Relative activity for PPAR transactivation, α (PPARα (GAL4-hPPARα LBD); [5]): (68) % of control; Relative activity for PPAR transactivation, γ (PPARγ (GAL4-hPPARγ LBD); [5]): (55) % of control"
18 % of control,,,[4-[3-[4-Isopropyl-2-(4-methoxyphenyl)-5-thiazolyl]propionyl]-2-methylphenoxy]propionic acid [Example 26],

Compound,"Relative activity for PPAR transactivation, δ (PPARδ (GAL4-hPPARδ LBD); [4])","Relative activity for PPAR transactivation, α (PPARα (GAL4-hPPARα LBD); [4])","Relative activity for PPAR transactivation, γ (PPARγ (GAL4-hPPARγ LBD); [4])",also measured
"C=CCc1cc(C(=O)CCc2sc(-c3ccc(C(F)(F)F)cc3)nc2C(C)C)ccc1OCC(=O)O [Example 19, 2-Allyl-4-[3-[4-isopropyl-2-(4-trifluoromethyl)phenyl-5-thiazolyl]propionyl]phenoxyacetic acid]",86 % of control,0 % of control,2 % of control,
